How the values were obtained:
[1] = from C=CCNC(=O)O[C@@H]1CC[C@H](c2cc(Nc3ccc(S(=O)(=O)NCC=C)cc3F)nn2C(C)(C)C)C1; rcm bond; Grubbs Cat. M204 (Grubbs II); DCE; 1.92 mM; 25.0 °C; 40.0 h
[2] = from C=CCNC(=O)O[C@@H]1CC[C@H](c2cc(Nc3ccc(S(=O)(=O)NCC=C)cc3F)nn2C(C)(C)C)C1; rcm bond; 20-membered ring; Grubbs Cat. M204; DCE; 1.92 mM; 25.0 °C
[3] = biological target: T1, CDK9/CyclinT1 (Homo sapiens, UniProt P50750); assay: CDK9/CyclinT1 ChEF Assay (AQT, Table C); assay type: biochemical; set-up: Wild-type, full length CDK9 in complex with wildtype, CyclinT1 (1-259): Biortus Cat #BP480/792/691; purchased Biortus BP480/792/691; conditions: 10XKm
Description: 16 nL of 1000× compound in 100% DMSO is added to a 384-well low volume, black assay plate. 12 μL of 1.3×CDK9/CyclinT1 (Wild-type, full length CDK9 in complex with wildtype, CyclinT1 (1-259): Biortus Cat #BP480/792/691) diluted in assay buffer (54 mM Hepes, 0.012% Brij-35, 10 mM MgCl2, 0.55 mM EGTA, 1% Glycerol, 0.02% BSA, and 1.2 mM DTT) is added to the plates on top of the compound and pre-incubated for 30 minutes at room temperature. Following the incubation, 4 μL of 4×Sox-chromophore (CSox) labeled peptide substrate (AQT0449, AssayQuant) & ATP diluted in assay buffer is added to the plate to initiate the reaction. The assay is incubated at room temperature for 180 min after initiation. The CSox peptide substrate is phosphorylated by CDK9/T1 upon ATP hydrolysis.
(§1) The fluorescent intensity measurement of the assay plate is read on a microplate reader once the assay is initiated and again at the completion of the assay. Phosphorylation of the CSox-based peptide substrate sensor results in an immediate increase in fluorescence. These raw fluorescence intensity values are normalized to calculate percent inhibition, which are fit to a four-parameter logistic curve and IC50 values are calculated. IC50 values are converted to Ki using substrate, KM^app values, and the Cheng-Prusoff equation.

[4] = biological target: T2, CDK2/CyclinA2 (Homo sapiens, UniProt P24941); assay: CDK2/CyclinA2 ChEF Assay (AQT, Table C); assay type: biochemical; conditions: 10xKm; for Ki: AQT ChEF, read-out: CDK2/CCNA2 AQT10xKm Ki: Average Ki; for CDK2/CCNA2 AQT10xKm Ki: CDK2/A2 Selectivity over CDK1/B1 / CDK2/CCNA2 AQT10xKm Ki: CDK2/A2 Selectivity over CDK9: AQT
T2 construct: Wild-type, full length CDK2 in complex with wildtype, full length CyclinA2: Carna Cat #04-103; purchased Carna 04-103
Description: (§2) 16 nL of 1000× compound in 100% DMSO is added to a 384-well low volume, black assay plate. 12 μL of 1.3×CDK2/CyclinA2 (Wild-type, full length CDK2 in complex with wildtype, full length CyclinA2: Carna Cat #04-103 diluted in assay buffer (54 mM Hepes, 0.012% Brij-35, 10 mM MgCl2, 0.55 mM EGTA, 1% Glycerol, 0.02% BSA, and 1.2 mM DTT) is added to the plates on top of the compound and pre-incubated for 30 minutes at room temperature. Following the incubation, 4 uL of 4×Sox-chromophore (CSox) labeled peptide substrate (AQT0297, AssayQuant) & ATP diluted in assay buffer is added to the plate to initiate the reaction. The assay is incubated at room temperature for 90 min after initiation. The CSox peptide substrate is phosphorylated by CDK2/A2 upon ATP hydrolysis.
as §1

[5] = biological target: T1, CDK9/CyclinT1; assay: CDK9/CyclinT1 Mobility Shift Assay (Caliper, Table B); assay type: biochemical; set-up: Wild-type, full length CDK9 in complex with wildtype, CyclinT1 (1-259): Biortus Cat #BP480/792/691; purchased Biortus BP480/792/691; conditions: read-out: CDK9/Cyclin T1 Caliper Ki: Average Ki
Description: 10 nL of 2000× compound in 100% DMSO is added to a 384-well polypropylene assay plate. 15 μL of 1.3×CDK9/T1 and 1.3× fluorescent substrate (Wild-type, full length CDK9 in complex with wildtype, CyclinT1 (1-259): Biortus Cat #BP480/792/691 and FL-Peptide 34: PerkinElmer Cat #760643) diluted in kinase buffer (50 mM Hepes, 0.01% Brij-35, 10 mM MgCl2, 1 mM EGTA, 0.05% BSA, and 2 mM DTT) is added to the plates on top of the compound, mixed, and pre-incubated for 30 minutes at room temperature. The fluorescently labeled peptide substrate is phosphorylated by CDK9/T1 upon ATP hydrolysis. Following the incubation, 5 μL of 4×ATP diluted in kinase buffer is added to the plate to initiate the reaction. Following the 30-minute incubation, the reaction is stopped by adding 75 μL of stopping buffer containing 0.5 M EDTA.
The assay plate is then read on a Lab Chip EZ Reader which separates the fluorescently labeled substrate and product peptides through a mobility difference. The phosphorylation of the substrate imparts a negative charge, which allows differences in separation as both are pulled through the microfluidic chip. The ratio of substrate and product values are used to generate percent conversion. These raw percent conversion values are normalized to calculate percent inhibition, which are fit to a four-parameter logistic curve and IC50 values are calculated. IC50 values are converted to Ki using substrate, Kmapp values, and the Cheng-Prusoff equation.

[6] = biological target: T3, CDK1/CyclinB1 (Homo sapiens, UniProt P06493); assay: CDK1/CyclinB1 ChEF Assay (AQT, Table C); assay type: biochemical; conditions: 10xKm, read-out: CDK1/CCNB1 AQT AQT10xKm Ki: Average Ki
T3 construct: Wild-type, full length CDK1 in complex with wildtype, full length CyclinB1: Carna Cat #04-102; purchased Carna 04-102
Description: as §2, with “1.3×CDK1/CyclinB1” for “1.3×CDK2/CyclinA2”, “CDK1” for “CDK2”, “CyclinB1:” for “CyclinA2:”, “#04-102)” for “#04-103”, “120” for “90”, “CDK1/B1” for “CDK2/A2”
as §1

T1 sequence (P50750 whole entry): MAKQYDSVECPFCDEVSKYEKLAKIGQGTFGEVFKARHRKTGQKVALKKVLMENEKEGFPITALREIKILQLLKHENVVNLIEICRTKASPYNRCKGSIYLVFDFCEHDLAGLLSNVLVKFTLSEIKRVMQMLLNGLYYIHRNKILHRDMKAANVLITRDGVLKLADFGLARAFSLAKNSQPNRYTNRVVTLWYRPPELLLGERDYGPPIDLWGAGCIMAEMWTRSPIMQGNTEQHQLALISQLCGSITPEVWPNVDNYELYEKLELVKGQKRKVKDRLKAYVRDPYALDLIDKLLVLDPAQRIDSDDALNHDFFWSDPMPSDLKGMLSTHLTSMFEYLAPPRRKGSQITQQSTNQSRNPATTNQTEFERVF
T1 sequence (O60563 1-259 partner limits assumed): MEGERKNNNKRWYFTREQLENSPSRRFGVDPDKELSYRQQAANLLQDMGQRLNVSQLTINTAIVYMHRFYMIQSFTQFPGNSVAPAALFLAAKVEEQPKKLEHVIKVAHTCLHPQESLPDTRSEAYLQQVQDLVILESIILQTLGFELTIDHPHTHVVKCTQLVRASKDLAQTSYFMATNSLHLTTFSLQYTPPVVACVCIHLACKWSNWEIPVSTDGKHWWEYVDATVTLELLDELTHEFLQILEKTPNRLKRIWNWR
T3 sequence (P06493 whole entry): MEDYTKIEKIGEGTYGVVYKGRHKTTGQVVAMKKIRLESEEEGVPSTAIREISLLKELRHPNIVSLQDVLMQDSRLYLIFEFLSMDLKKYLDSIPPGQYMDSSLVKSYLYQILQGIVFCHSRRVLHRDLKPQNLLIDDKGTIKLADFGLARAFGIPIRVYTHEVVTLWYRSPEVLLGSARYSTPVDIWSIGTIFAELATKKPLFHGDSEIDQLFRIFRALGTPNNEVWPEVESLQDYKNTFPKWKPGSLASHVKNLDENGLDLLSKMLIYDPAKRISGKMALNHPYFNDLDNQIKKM
T3 sequence (P14635 whole entry partner): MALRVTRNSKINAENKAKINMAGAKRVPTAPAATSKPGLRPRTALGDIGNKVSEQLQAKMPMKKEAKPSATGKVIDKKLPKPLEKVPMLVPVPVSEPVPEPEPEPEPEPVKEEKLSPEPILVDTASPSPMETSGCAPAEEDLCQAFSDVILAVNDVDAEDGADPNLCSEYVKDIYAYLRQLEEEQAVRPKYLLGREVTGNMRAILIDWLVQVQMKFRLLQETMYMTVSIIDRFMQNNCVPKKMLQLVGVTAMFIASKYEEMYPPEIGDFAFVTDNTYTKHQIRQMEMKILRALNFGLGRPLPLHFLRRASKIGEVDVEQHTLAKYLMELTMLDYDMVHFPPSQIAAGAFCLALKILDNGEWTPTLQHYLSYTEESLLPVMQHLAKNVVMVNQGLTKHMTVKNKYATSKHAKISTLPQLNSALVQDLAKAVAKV

CC(C)(C)n1nc2cc1[C@H]1CC[C@H](C1)OC(=O)NCC=CCNS(=O)(=O)c1ccc(c(F)c1)N2 gave a ring closure, yield of all isomers [1] of 29% and a ring closure, yield after HPLC [2] of 29%.

In the case of NS(=O)(=O)c1ccc2cc1OCCCCCNC(=O)O[C@H]1CC[C@H](C1)c1cnc(nc1)N2 (stereo in doubt) [Compound 103, 12-oxo-5,13-dioxa-3,11-diaza-2(5,2)-pyrimidina-4(1,3)-benzena-1(1,3)-cyclopentanacyclotridecaphane-44-sulfonamide], the Ki [3] is reported as 1 to 25 nM, the Ki [4] is reported as less than 1 nM and the “CDK2/CCNA2 AQT10xKm Ki: CDK2/A2 Selectivity over CDK1/B1” value [4] is reported as “A (A>10)”. For the same molecule, the “CDK2/CCNA2 AQT10xKm Ki: CDK2/A2 Selectivity over CDK9” value [4] was “A (A>10)”, the Ki [5] was no less than 100 nM and the Ki [6] was 1 to 25 nM.

With NS(=O)(=O)c1ccc2cc1OCCCCCNC(=O)O[C@H]1CC[C@H](C1)c1cnc(nc1)N2 (stereo in doubt) [Compound 104, rel-(2R,5S)-7-oxo-6,14-dioxa-8,20,22,25-tetraazatetracyclo[19.2.2.1^{2,5}.1^{15,19}]heptacosa-1(23),15,17,19(26),21,24-hexaene-16-sulfonamide] the Ki [3] was no less than 100 nM, the Ki [4] was less than 1 nM and the “CDK2/CCNA2 AQT10xKm Ki: CDK2/A2 Selectivity over CDK1/B1” value [4] was “A (A>10)”. The “CDK2/CCNA2 AQT10xKm Ki: CDK2/A2 Selectivity over CDK9” value [4] was “A (A>10)”, the Ki [5] was no less than 100 nM and the Ki [6] was 1 to 25 nM.

Source: patent US20260200943A1, “COMPOUNDS FOR TREATING CANCER” (Genesis Therapeutics, Inc., priority 2022, published 2026)
